# Test results taken from patent publication US6444692B1, “Fungicidal mixtures” (BASF Aktiengesellschaft, priority 1997, dated 2002).
# System: powdery mildew of wheat (Erysiphe graminis forma specialis tritici)
# Test: Activity against powdery mildew of wheat (protective spray on wheat seedlings, visual % infection of leaf area after 7 days)
# Format: in vivo
# Details: single active ingredient, wheat seedlings cv. Frühgold
# Excerpt: The active ingredients, separately or together, are formulated as a 10% emulsion in a mixture of 70% by weight of cyclohexanone, 20% by weight of Nekanil® LN (Lutensol® AP6, wetting agent having emulsifying and dispersing action, based on ethoxylated alkylphenols) and 10% by weight of Emulphor® EL (Emulan® EL, emulsifier based on ethoxylated fatty alcohols) and diluted with water to give the desired concentration.
# Leaves of wheat seedlings cv. “Frühgold” which had been grown in pots were sprayed to runoff point with an aqueous preparation of active ingredient which had been prepared from a stock solution comprising 10% of active ingredient, 63% of cyclohexanone and 27% of emulsifier and, 24 hours after the spray coating had dried on, dusted with spores of powdery mildew of wheat (Erysiphe graminis forma specialis tritici). The test plants were subsequently placed in a greenhouse at from […] and a relative atmospheric humidity of 60 to 90%. After 7 days, the extent of mildew development was determined visually as % infection of the total leaf area.
# Evaluation is carried out by determining the infected leaf areas in percent. These percentages are converted into efficacies. The expected efficacies of the mixtures of the active ingredients are determined using Colby's formula [R. S. Colby, Weeds 15, 20-22 (1967)] and compared with the observed efficacies. […]
# The efficacy (E) is calculated as follows using Abbot's formula: […]
# α corresponds to the fungal infection of the treated plants in % and
# β corresponds to the fungal infection of the untreated (control) plants in %
# An efficacy of 0 means that the infection level of the treated plants corresponds to that of the untreated control plants; an efficacy of 100 means that the treated plants were not infected.
Structure (SMILES),Efficacy in % of the untreated control (0.125 ppm in the spray liquor),Efficacy in % of the untreated control (0.5 ppm in the spray liquor)
COC(=O)N(OC)c1ccccc1COc1ccn(-c2ccc(Cl)cc2)n1 [Compound I.32],0%,10%
CNC(=O)/C(=N\OC)c1ccccc1COc1cc(C)ccc1C [Compound III],20%,
CO/N=C(\C(=O)OC)c1ccccc1COc1ccccc1C [Compound II],0%,
